Reference: paper PMC9116245, “New 1,2,3-triazole linked ciprofloxacin-chalcones induce DNA damage by inhibiting human topoisomerase I& II and tubulin polymerization” (Journal of Enzyme Inhibition and Medicinal Chemistry, 2022)

Assays:
Test in all cases: NCI one-dose screen
Assay type in all cases: cell-based
OVCAR-5 = conditions: Homo sapiens; OVCAR-5, 10 µM; read-out: Growth Percent
Method in brief: (§1)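 First, the NCI selected compounds for evaluation; then each was applied at 10 µM to 59 human cancer cell lines from nine subpanels, and growth percent was recorded under the standard protocol.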

SW-620 = conditions: Homo sapiens; SW-620, 10 µM; read-out: Growth Percent
Method in brief: as §1

NCI-H460 = conditions: Homo sapiens; NCI-H460, 10 µM; read-out: Growth Percent
Method in brief: as §1

SN12C = conditions: Homo sapiens, read-out: Growth Percent
Method in brief: as §1

HS 578T = conditions: Homo sapiens, read-out: Growth Percent
Method in brief: as §1

ACHN = conditions: Homo sapiens, read-out: Growth Percent
Method in brief: as §1

CCRF-CEM = conditions: Homo sapiens, read-out: Growth Percent
Method in brief: as §1

PC-3 = conditions: Homo sapiens; PC-3, 10 µM; read-out: Growth Percent
Method in brief: as §1

UO-31 = conditions: Homo sapiens; UO-31, 10 µM; read-out: Growth Percent
Method in brief: as §1

HL-60(TB) = conditions: Homo sapiens, read-out: Growth Percent
SF-539 = conditions: Homo sapiens; SF-539, 10 µM; read-out: Growth Percent
Method in brief: as §1

M14 = conditions: Homo sapiens; M14, 10 µM; read-out: Growth Percent
Method in brief: as §1

HOP-92 = conditions: Homo sapiens; HOP-92, 10 µM; read-out: Growth Percent
Method in brief: as §1

KM12 = conditions: Homo sapiens; KM12, 10 µM; read-out: Growth Percent
Method in brief: as §1

UACC-62 = conditions: Homo sapiens; UACC-62, 10 µM; read-out: Growth Percent
Method in brief: as §1

MDA-MB-231/ATCC = conditions: Homo sapiens, read-out: Growth Percent
Method in brief: as §1

HCC-2998 = conditions: Homo sapiens; HCC-2998, 10 µM; read-out: Growth Percent
Method in brief: as §1

HT29 = conditions: Homo sapiens, HT-29; HT29, 10 µM; read-out: Growth Percent
Method in brief: as §1

HOP-62 = conditions: Homo sapiens; HOP-62, 10 µM; read-out: Growth Percent
Method in brief: as §1

SK-MEL-5 = conditions: Homo sapiens; SK-MEL-5, 10 µM; read-out: Growth Percent
Method in brief: as §1

IGROV1 = conditions: Homo sapiens, IGROV-1; IGROV1, 10 µM; read-out: Growth Percent
Method in brief: as §1

EKVX = conditions: Homo sapiens, read-out: Growth Percent
Method in brief: as §1

MDA-MB-435 = conditions: Homo sapiens; MDA-MB-435, 10 µM; read-out: Growth Percent
Method in brief: as §1

NCI-H522 = conditions: Homo sapiens; NCI-H522, 10 µM; read-out: Growth Percent
Method in brief: as §1

OVCAR-8 = conditions: Homo sapiens; OVCAR-8, 10 µM; read-out: Growth Percent
Method in brief: as §1

SK-MEL-2 = conditions: Homo sapiens; SK-MEL-2, 10 µM; read-out: Growth Percent
Method in brief: as §1

A498 = conditions: Homo sapiens; A498, 10 µM; read-out: Growth Percent
Method in brief: as §1

OVCAR-4 = conditions: Homo sapiens; OVCAR-4, 10 µM; read-out: Growth Percent
Method in brief: as §1

Compound | activity at 10 µM (OVCAR-5) [%] | activity at 10 µM (SW-620) [%] | activity at 10 µM (NCI-H460) [%] | activity at 10 µM (SN12C) [%] | activity at 10 µM (HS 578T) [%] | activity at 10 µM (ACHN) [%] | activity at 10 µM (CCRF-CEM) [%] | activity at 10 µM (PC-3) [%] | activity at 10 µM (UO-31) [%] | activity at 10 µM (HL-60(TB)) [%] | activity at 10 µM (SF-539) [%] | activity at 10 µM (M14) [%] | activity at 10 µM (HOP-92) [%] | activity at 10 µM (KM12) [%] | activity at 10 µM (UACC-62) [%] | activity at 10 µM (MDA-MB-231/ATCC) [%] | activity at 10 µM (HCC-2998) [%] | activity at 10 µM (HT29) [%] | activity at 10 µM (HOP-62) [%] | activity at 10 µM (SK-MEL-5) [%] | other results
O=C(/C=C/c1ccc(F)cc1)c1ccc(-n2cc(CN3CCN(c4cc5c(cc4F)c(=O)c(C(=O)O)cn5C4CC4)CC3)nn2)cc1 [Compound 4e, (E)-1-cyclopropyl-6-fluoro-7–(4-((1–(4-(3-(4-fluorophenyl)acryloyl)phenyl)-1H-1,2,3-triazol-4-yl)methyl)piperazin-1-yl)-4-oxo-1,4-dihydroquinoline-3-carboxylic acid] | 84.2 | 43.2 | 32.5 | 8.77 | 57.5 | 88.5 | 20 | 57.4 | 62.8 | 84.6 | 27.9 | 60.9 | 50.3 | 32.9 | 55.8 | 65.3 | 79.3 | 28 | 67.3 | 79 | activity at 10 µM (IGROV1): 39.6%; activity at 10 µM (EKVX): 87.5%; activity at 10 µM (MDA-MB-435): 64.7%; activity at 10 µM (NCI-H522): 48.5%; activity at 10 µM (OVCAR-8): 23.3%; activity at 10 µM (SK-MEL-2): 89%; activity at 10 µM (A498): 61.1%; activity at 10 µM (OVCAR-4): 93.1%
O=C(/C=C/c1ccccc1)c1ccc(-n2cc(CN3CCN(c4cc5c(cc4F)c(=O)c(C(=O)O)cn5C4CC4)CC3)nn2)cc1 [Compound 4a, (E) 7-(4-((1–(4-Cinnamoylphenyl)-1H-1,2,3-triazol-4-yl)methyl)piperazin-1-yl)-1-cyclopropyl-6-fluoro-4-oxo-1,4-dihydroquinoline-3-carboxylic acid] | 103 | 90 | 91.2 | 103 | 80.6 | 96.7 | 111 | 83.9 | 63.1 | 99 | 92.6 | 90.1 | 79.9 | 84.9 | 90.5 | 97.1 | 86 | 90.8 | 78.7 | 84.3 | activity at 10 µM (IGROV1): 75.3%; activity at 10 µM (EKVX): 88.5%; activity at 10 µM (MDA-MB-435): 96.3%; activity at 10 µM (NCI-H522): 89.2%; activity at 10 µM (OVCAR-8): 95.1%; activity at 10 µM (SK-MEL-2): 96.4%; activity at 10 µM (A498): 76.7%; activity at 10 µM (OVCAR-4): 102%
COc1ccc(/C=C/C(=O)c2ccc(-n3cc(CN4CCN(c5cc6c(cc5F)c(=O)c(C(=O)O)cn6C5CC5)CC4)nn3)cc2)cc1 [Compound 4g, (E)-1-Cyclopropyl-6-fluoro-7-(4-((1-(4-(3-(4-methoxyphenyl)acryloyl)phenyl)-1H-1,2,3-triazol-4-yl)methyl)piperazin-1-yl)-4-oxo-1,4-dihydroquinoline-3-carboxylic acid] | 100 | 81.7 | 82.2 | 58.2 | 65.3 | 89.9 | 74.6 | 89 | 65.1 | 99 | 92.8 | 88.7 | 84.8 | 86.4 | 74.6 | 88.1 | 90.7 | 78.2 | 85.5 | 81.6 | activity at 10 µM (IGROV1): 59%; activity at 10 µM (EKVX): 96.6%; activity at 10 µM (MDA-MB-435): 82.2%; activity at 10 µM (NCI-H522): 79.1%; activity at 10 µM (OVCAR-8): 83.6%; activity at 10 µM (SK-MEL-2): 99.1%; activity at 10 µM (A498): 60.5%; activity at 10 µM (OVCAR-4): 94.4%
COc1ccc(/C=C/C(=O)c2ccc(-n3cc(CN4CCN(c5cc6c(cc5F)c(=O)c(C(=O)O)cn6C5CC5)CC4)nn3)cc2)cc1OC [Compound 4i, (E)-1-cyclopropyl-7-(4-((1-(4-(3–(3,4-dimethoxyphenyl)acryloyl)phenyl)-1H-1,2,3-triazol-4-yl)methyl)piperazin-1-yl)-6-fluoro-4-oxo-1,4-dihydroquinoline-3-carboxylic acid] | 92.1 | 32.8 | 77.9 | 32.6 | 52.8 | 85 | 44 | 56.3 | 54.9 | 85.9 | 50.8 | 59 | 66.5 | 42.6 | 53.9 | 67.2 | 44 | 29.6 | 75.6 | 69 | activity at 10 µM (IGROV1): 26.6%; activity at 10 µM (EKVX): 96.6%; activity at 10 µM (MDA-MB-435): 22.2%; activity at 10 µM (NCI-H522): 67.6%; activity at 10 µM (OVCAR-8): 67.4%; activity at 10 µM (SK-MEL-2): 97%; activity at 10 µM (A498): 68.2%; activity at 10 µM (OVCAR-4): 88%
